Measured values reported in patent US20190224192A1, “Stable Pharmaceutical Composition of Vortioxetine Hydrobromide” (Cipla Limited, priority 2016, published 2019).
Where a name gives a salt, the structure may show the parent alone.

Assays:
[1] = in vitro dissolution of premix compared to beta form; assay type: physicochemical; conditions: unit assumed
Source text: FIG. 2: FIGS. 2a and 2b show dissolution data of a Vortioxetine hydrobromide premix according to the present invention compared to the beta form of Vortioxetine hydrobromide.
In one aspect, the present invention provides a Vortioxetine hydrobromide premix having stability and dissolution properties such that it can be easily formulated into pharmaceutically useful composition.

[2] = cited from earlier work
[3] = solid state form stability (conversion of form on stability); assay type: physicochemical
Source text: WO 2016/062860 relates to a pharmaceutical composition comprising amorphous Vortioxetine hydrobromide, a process for the preparation thereof, use thereof and a method for stabilizing Vortioxetine hydrobromide in a pharmaceutical composition.
However, this technique is not desirable in cases where the melting point of the drug to be converted is very high. For the process to work, it is required that the drug undergoes complete melting, which would lead to complete conversion. The melting point of the drug Vortioxetine is very high, in order of 227-230 degrees. The normal temperatures that are employed in the laboratory is around 180 C, maximizing to 200 C. The HME in this case was attempted with Klucel and Kollidone VA 64. […] This could be attributed to the incomplete melting of the drug and thus incomplete form conversion.

| in vitro dissolution ([1]; Time in min 15) | in vitro dissolution ([1]; Time in min 30) | in vitro dissolution ([1]; Time in min 60) | in vitro dissolution ([1]; Time in min 120) | in vitro dissolution ([1]; Time in min 240) | in vitro dissolution ([1]; Time in min 480) | in vitro dissolution ([1]; Time in min 600) | in vitro dissolution ([1]; Time in min 720) | Compound | aqueous solubility [2] | solid state form conversion on stability [3] |
| --- | --- | --- | --- | --- | --- | --- | --- | --- | --- | --- |
| 14% | 20% | 29% | 37% | 49% | 61% | 63% | 63% | Br.Cc1ccc(Sc2ccccc2N2CCNCC2)c(C)c1 [Beta Form, Vortioxetine hydrobromide] | about 1.2 mg/ml | – |
| – | – | – | – | – | – | – | – | Cc1ccc(Sc2ccccc2N2CCNCC2)c(C)c1 [amorphous Vortioxetine hydrobromide, Vortioxetine hydrobromide] | – | gets converted to a more stable crystalline form |
